Test results from US20260324644A1, “HERBICIDE COMPOSITION AND A METHOD FOR BURNDOWN APPLICATION” (UPL Mauritius Limited, priority 2022, published 2026).
Where two headings read alike, the source gives them in different places.

Legend:
Euphorbia geniculate = assay: Greenhouse trial, burndown (non-crop) weed control, Euphorbia geniculate; type: in vivo; settings: for % Control after 10 DAA: Example 1; for % Control: 495 g a.i./ha
Method: (§1) Methodology: Greenhouse trials were conducted to evaluate the efficacy of the L-glufosinate on broad spectrum weeds at non-crop stage (burndown application).
(§2) The soil used was medium black soil. All treatments were in 3 replications per treatment with a spray volume of about 150 L/ha.
(§3) The percentage efficacy was calculated after 10 days of application (DAA). The target weeds were Amaranthus viridis, E. geniculate, P. oleracea, Brachiaria spp. and the concentration of the herbicide and the results are recorded in Table 1.
(§4) The percentage efficacy was calculated after 10 and 15 days of application (DAA). The herbicidal composition used was L-glufosinate (SL) at 150 g a.i./L. The application rate was 495 g a.i./ha. The target weeds were Amaranthus virids, A. spinosus, C. Album, E. geniculate, P. oleracea, P. hysterophrous, Brachiaria spp., D. retroflexa, E. colonum and the concentration of the herbicide and the results are recorded in Table 2.
(§5) The percentage efficacy was calculated after 10 and 15 days of application (DAA). The herbicidal composition used was L-glufosinate (SL) at 150 g a.i./L and 280 g a.i./L. The application rate was 495 g a.i./ha. The target weeds were Amaranthus viridis, Amaranthus spinosus, Acalypha indica, Digera arvensis, Euphorbia geniculate, Portulaca oleracea, Parthenium hysterophrous, Phyllanthus maderaspatensis and the concentration of the herbicide and the results are recorded in Table 3.

Parthenium hysterophrous = assay: Greenhouse trial, burndown (non-crop) weed control, Parthenium hysterophrous; type: in vivo; settings: 495 g a.i./ha
Method: as §1, §2, §4, §5

Portulaca oleracea = assay: Greenhouse trial, burndown (non-crop) weed control, Portulaca oleracea; type: in vivo; settings: 495 g a.i./ha
Method: as §1, §2, §4, §5

Digera arvensis = assay: Greenhouse trial, burndown (non-crop) weed control, Digera arvensis; type: in vivo; settings: 495 g a.i./ha
Method: as §1, §2, §5

Amaranthus viridis = assay: Greenhouse trial, burndown (non-crop) weed control, Amaranthus viridis; type: in vivo; settings: for % Control: 495 g a.i./ha
Method: as §1, §2, §3, §4, §5

plants = settings: background statement; cited from earlier work
E. colonum = assay: Greenhouse trial, burndown (non-crop) weed control, E. colonum; type: in vivo; settings: Example 2, SL 150 g a.i./L, 495 g a.i./ha
Method: as §1, §2, §4

Dinebra retroflexa = assay: Greenhouse trial, burndown (non-crop) weed control, Dinebra retroflexa; type: in vivo; settings: 495 g a.i./ha
Method: as §1, §2, §4
(§6) The percentage efficacy was calculated after 10 and 15 days of application (DAA). The herbicidal composition used was L-glufosinate (SL) at 150 g a.i./L and 280 g a.i./L. The application rate was 495 g a.i./ha. The target weeds were Brachiaria spp., Dinebra retroflexa, Echonochloa colonum and the concentration of the herbicide and the results are recorded in Table 4.

Acalypha indica = assay: Greenhouse trial, burndown (non-crop) weed control, Acalypha indica; type: in vivo; settings: 495 g a.i./ha
Method: as §1, §2, §5

Brachiaria spp. = assay: Greenhouse trial, burndown (non-crop) weed control, Brachiaria spp.; type: in vivo; settings: for % Control: 495 g a.i./ha
Method: as §1, §2, §3, §4, §6

[1] = system: Phyllanthus maderaspatensis; assay: Greenhouse trial, burndown (non-crop) weed control, Phyllanthus maderaspatensis; type: in vivo; settings: 495 g a.i./ha
Method: as §1, §2, §5

[2] = system: glutamine synthetase (GS); settings: role: inhibitor, GS of bacteria and plants, cited from earlier work
Amaranthus spinosus = assay: Greenhouse trial, burndown (non-crop) weed control, Amaranthus spinosus; type: in vivo; settings: 495 g a.i./ha
Method: as §1, §2, §4, §5

C. Album = assay: Greenhouse trial, burndown (non-crop) weed control, C. Album; type: in vivo; settings: Example 2, SL 150 g a.i./L, 495 g a.i./ha
Method: as §1, §2, §4

[3] = Example 3, SL 150 g a.i./L, 10 DAA
[4] = Example 3, SL 150 g a.i./L, 15 DAA
[5] = Example 3, SL 280 g a.i./L, 10 DAA
[6] = Example 3, SL 280 g a.i./L, 15 DAA
[7] = Example 1, L-glufosinate (SL) 200 g a.i./L, rate 150 g a.i./ha, 10 DAA
[8] = Example 1, L-glufosinate (SL) 200 g a.i./L, rate 165 g a.i./ha, 10 DAA
[9] = Example 1, L-glufosinate (SL) 200 g a.i./L, rate 200 g a.i./ha, 10 DAA
[10] = Example 1, L-glufosinate (SL) 200 g a.i./L, rate 220 g a.i./ha, 10 DAA
[11] = Example 1, L-glufosinate (SL) 280 g a.i./L, rate 150 g a.i./ha, 10 DAA
[12] = Example 1, L-glufosinate (SL) 280 g a.i./L, rate 165 g a.i./ha, 10 DAA
[13] = Example 1, L-glufosinate (SL) 280 g a.i./L, rate 200 g a.i./ha, 10 DAA
[14] = Example 1, L-glufosinate (SL) 280 g a.i./L, rate 220 g a.i./ha, 10 DAA
[15] = Example 2, SL 150 g a.i./L, 10 DAA
[16] = Example 2, SL 150 g a.i./L, 15 DAA

CP(=O)(O)CC[C@H](N)C(=O)O.N [L-glufosinate, (S)-2-amino-4-(hydroxy(methyl)phosphonoyl)butanoic acid]
only the L-isomer inhibits GS: inhibition of glutamine synthetase (GS) ([2]; listed as L-isomer)
97%: % Control after 10 DAA (Euphorbia geniculate; L-glufosinate (SL) 200 g a.i./L, rate 200 g a.i./ha, 10 DAA, E. geniculate) | % Control (Parthenium hysterophrous; Example 3, SL 280 g a.i./L, 10 DAA, Parthenium hysterophrous) | % Control (Parthenium hysterophrous; Example 3, SL 280 g a.i./L, 15 DAA, Parthenium hysterophrous) | % Control [1, 5] | % Control [1, 6]
93%: % Control after 10 DAA (Euphorbia geniculate; L-glufosinate (SL) 200 g a.i./L, rate 150 g a.i./ha, 10 DAA, E. geniculate) | % Control after 10 DAA (Euphorbia geniculate; L-glufosinate (SL) 200 g a.i./L, rate 220 g a.i./ha, 10 DAA, E. geniculate) | % Control after 10 DAA (Euphorbia geniculate; L-glufosinate (SL) 280 g a.i./L, rate 220 g a.i./ha, 10 DAA, E. geniculate) | % Control (Parthenium hysterophrous; Example 3, SL 150 g a.i./L, 10 DAA, Parthenium hysterophrous) | % Control (Parthenium hysterophrous; Example 3, SL 150 g a.i./L, 15 DAA, Parthenium hysterophrous) | % Control (Brachiaria spp.; [15]) | % Control [1, 3]
herbicidally active: herbicidal activity (plants)
83%: % Control (Dinebra retroflexa; Example 4, SL 150 g a.i./L, 10 DAA, Dinebra retroflexa) | % Control (Dinebra retroflexa; Example 4, SL 280 g a.i./L, 10 DAA, Dinebra retroflexa)
80%: % Control (Euphorbia geniculate; Example 3, SL 150 g a.i./L, 10 DAA, Euphorbia geniculate) | % Control (Acalypha indica; [3])
82%: % Control (Portulaca oleracea; Example 2, SL 150 g a.i./L, 15 DAA, P. oleracea)
88%: % Control (Portulaca oleracea; Example 2, SL 150 g a.i./L, 10 DAA, P. oleracea)
100%: % Control (Euphorbia geniculate; Example 2, SL 150 g a.i./L, 10 DAA, E. geniculate) | % Control (Euphorbia geniculate; Example 2, SL 150 g a.i./L, 15 DAA, E. geniculate) | % Control (Euphorbia geniculate; Example 3, SL 150 g a.i./L, 15 DAA, Euphorbia geniculate) | % Control (Euphorbia geniculate; Example 3, SL 280 g a.i./L, 15 DAA, Euphorbia geniculate) | % Control (Parthenium hysterophrous; Example 2, SL 150 g a.i./L, 10 DAA, P. hysterophrous) | % Control (Parthenium hysterophrous; Example 2, SL 150 g a.i./L, 15 DAA, P. hysterophrous) | % Control (Portulaca oleracea; Example 3, SL 150 g a.i./L, 10 DAA, Portulaca oleracea) | % Control (Portulaca oleracea; Example 3, SL 150 g a.i./L, 15 DAA, Portulaca oleracea) | % Control (Portulaca oleracea; Example 3, SL 280 g a.i./L, 10 DAA, Portulaca oleracea) | % Control (Portulaca oleracea; Example 3, SL 280 g a.i./L, 15 DAA, Portulaca oleracea) | % Control (Digera arvensis; [3]) | % Control (Digera arvensis; [4]) | % Control (Digera arvensis; [5]) | % Control (Digera arvensis; [6]) | % Control after 10 DAA (Amaranthus viridis; [7]) | % Control after 10 DAA (Amaranthus viridis; [8]) | % Control after 10 DAA (Amaranthus viridis; [9]) | % Control after 10 DAA (Amaranthus viridis; [10]) | % Control after 10 DAA (Amaranthus viridis; [11]) | % Control after 10 DAA (Amaranthus viridis; [12]) | % Control after 10 DAA (Amaranthus viridis; [13]) | % Control after 10 DAA (Amaranthus viridis; [14]) | % Control (Amaranthus viridis; [15]) | % Control (Amaranthus viridis; [16]) | % Control (Amaranthus viridis; [3]) | % Control (Amaranthus viridis; [4]) | % Control (Amaranthus viridis; [5]) | % Control (Amaranthus viridis; [6]) | % Control (Dinebra retroflexa; Example 2, SL 150 g a.i./L, 10 DAA, D. retroflexa) | % Control (Dinebra retroflexa; Example 2, SL 150 g a.i./L, 15 DAA, D. retroflexa) | % Control (Acalypha indica; [4]) | % Control (Acalypha indica; [6]) | % Control after 10 DAA (Brachiaria spp.; [7]) | % Control after 10 DAA (Brachiaria spp.; [8]) | % Control after 10 DAA (Brachiaria spp.; [9]) | % Control after 10 DAA (Brachiaria spp.; [10]) | % Control after 10 DAA (Brachiaria spp.; [11]) | % Control after 10 DAA (Brachiaria spp.; [12]) | % Control after 10 DAA (Brachiaria spp.; [13]) | % Control after 10 DAA (Brachiaria spp.; [14]) | % Control (Brachiaria spp.; [16]) | % Control (Brachiaria spp.; Example 4, SL 150 g a.i./L, 10 DAA) | % Control (Brachiaria spp.; Example 4, SL 150 g a.i./L, 15 DAA) | % Control (Brachiaria spp.; Example 4, SL 280 g a.i./L, 10 DAA) | % Control (Brachiaria spp.; Example 4, SL 280 g a.i./L, 15 DAA) | % Control [1, 4] | % Control (Amaranthus spinosus; Example 2, SL 150 g a.i./L, 10 DAA, A. spinosus) | % Control (Amaranthus spinosus; Example 2, SL 150 g a.i./L, 15 DAA, A. spinosus) | % Control (Amaranthus spinosus; Example 3, SL 150 g a.i./L, 10 DAA, Amaranthus spinosus) | % Control (Amaranthus spinosus; Example 3, SL 150 g a.i./L, 15 DAA, Amaranthus spinosus) | % Control (Amaranthus spinosus; Example 3, SL 280 g a.i./L, 10 DAA, Amaranthus spinosus) | % Control (Amaranthus spinosus; Example 3, SL 280 g a.i./L, 15 DAA, Amaranthus spinosus) | % Control (C. Album; 10 DAA) | % Control (C. Album; 15 DAA)
70%: % Control (Dinebra retroflexa; Example 4, SL 150 g a.i./L, 15 DAA, Dinebra retroflexa) | % Control (Dinebra retroflexa; Example 4, SL 280 g a.i./L, 15 DAA, Dinebra retroflexa)
95%: % Control after 10 DAA (Euphorbia geniculate; L-glufosinate (SL) 200 g a.i./L, rate 165 g a.i./ha, 10 DAA, E. geniculate) | % Control after 10 DAA (Euphorbia geniculate; L-glufosinate (SL) 280 g a.i./L, rate 200 g a.i./ha, 10 DAA, E. geniculate)
92%: % Control after 10 DAA (Euphorbia geniculate; L-glufosinate (SL) 280 g a.i./L, rate 150 g a.i./ha, 10 DAA, E. geniculate)
competitive inhibitor: inhibition of glutamine synthetase (GS) ([2]; listed as L-isomer of glufosinate)
87%: % Control (Acalypha indica; [5])
90%: % Control after 10 DAA (Euphorbia geniculate; L-glufosinate (SL) 280 g a.i./L, rate 165 g a.i./ha, 10 DAA, E. geniculate) | % Control (Euphorbia geniculate; Example 3, SL 280 g a.i./L, 10 DAA, Euphorbia geniculate) | % Control (E. colonum; 10 DAA) | % Control (E. colonum; 15 DAA)

CP(=O)(O)CC[C@@H](N)C(=O)O [D-glufosinate]
not a GS inhibitor: inhibition of glutamine synthetase (GS) [2]
not herbicidally active: herbicidal activity (plants)
